Patent US10548910B2, “Amido-substituted pyridotriazine derivatives useful as HIV integrase inhibitors” (priority 2015, dated 2020)
Where two headings read alike, the source gives them in different places.

System: HIV-1
Experiment: HIV-1 infection assay (MT4-GFP cells, inhibition of reproductive ratio R0)
Type: cell-based
Protocol: Assessing Antiviral Potency Using An HIV-1 Infection Assay
HIV-1 replication was monitored using MT4-gag-GFP clone D3 (hereafter designate MT4-GFP), which are MT-4 cells modified to harbor a GFP reporter gene, the expression of which is dependent on the HIV-1 expressed proteins tat and rev. Productive infection of an MT4-GFP cell with HIV-1 results in GFP expression approximately 24 h post-infection.
MT4-GFP cells were maintained at 37° C./5% CO2/90% relative humidity in RPMI 1640 supplemented with 10% fetal bovine serum, 100 U/ml penicillin/streptomycin, and 400 μg/ml G418 to maintain the reporter gene. For infections, MT4-GFP cells were placed in the same medium lacking G418 and infected overnight with H9IIIB or NL4-3 virus at an approximate multiplicity of infection of 0.01 in the same incubation conditions. Cells were then washed and resuspended in either RPMI 1640 containing no serum at 1.6×10^5 cells/mL (serum free conditions), 10% normal human serum at 1.6×10^5 cells/mL (10% NHS conditions) or in 100% normal human serum at 2×10^5 cells/mL (100% NHS conditions). Compound plates were prepared by dispensing compounds taken up in DMSO into wells of 384 well poly D lysine-coated plates (0.2 μl/well) using an ECHO acoustic dispenser. Each compound was tested in a 10 point serial 3-fold dilution (typical final concentrations: 4.2 μM-0.21 nM). Controls included no inhibitor (DMSO only) and a combination of three antiviral agents (efavirenz, indinavir, and the integrase strand transfer inhibitor L-002254051 at final concentrations of 4 μM each). Cells were added (50 μL/well) to compound plates and the infected cells were maintained at 37° C./5% CO2/90% relative humidity.
Infected cells were quantified at two time points, ˜48 h and ˜72 h post-infection, by counting the number of green cells in each well using an Acumen eX3 scanner. The increase in the number of green cells over ˜24 h period gives the reproductive ratio, R0, which is typically 5-15 and has been shown experimentally to be in logarithmic phase (data not shown). Inhibition of R0 is calculated for each well, and IC50 value was determined using non-linear 4-parameter curve fitting.

[1] = Human immunodeficiency virus 1, NL43, MT4-GFP cells infected with H9IIIB or NL4-3 virus, 0% NHS (serum free conditions), read-out: VIKING IP (nM) with 0% NHS
[2] = Human immunodeficiency virus 1, NL43, MT4-GFP cells infected with H9IIIB or NL4-3 virus, 100% normal human serum, read-out: VIKING IP (nM) with 100% NHS
[3] = MT4-GFP cells infected with H9IIIB or NL4-3 virus, 0% NHS (serum free conditions), read-out: VIKING IP (nM) with 0% NHS
[4] = MT4-GFP cells infected with H9IIIB or NL4-3 virus, 100% normal human serum, read-out: VIKING IP (nM) with 100% NHS

SMILES | IC50 (Human immunodeficiency virus 1, NL43, read-out: VIKING IP (nM) with 0% NHS) | IC50 [1] | IC50 [2] | IC50 [3] | IC50 [4]
CCN1C(=O)c2c(O)c(=O)c(C(=O)NCc3ccc(F)cc3F)cn2N(CCP(=O)(N[C@@H](C)C(=O)OC(C)C)Oc2ccccc2)C12CCCC2 (stereo partly shown) [Compound 9] | 3.8 nM | – | – | – | –
CCOP(=O)(OCC)C1CCC2(C1)N(CC)C(=O)c1c(O)c(=O)c(C(=O)NCc3ccc(F)cc3F)cn1N2C (stereo not shown) [Compound 35] | – | 9.4 nM | 126 nM | – | –
CC(C)OC(=O)OCOP(=O)(OCOC(=O)OC(C)C)[C@H]1CCC2(C1)N(C)C(=O)c1c(O)c(=O)c(C(=O)NCc3ccc(F)cc3F)cn1N2C (single isomer, unassigned) [Compound 23] | – | – | – | 0.28 nM | 3.6 nM
CC(C)OC(=O)OCOP(=O)(CCN1n2cc(C(=O)NCc3ccc(F)cc3F)c(=O)c(O)c2C(=O)N(C)C12CCCC2)OCOC(=O)OC(C)C [Compound 7] | – | 0.2 nM | 2.1 nM | – | –
CCN1C(=O)c2c(O)c(=O)c(C(=O)NCc3ccc(F)cc3F)cn2N(C)C12CCC(P(=O)(O)O)C2 (stereo not shown) [Compound 36] | – | 187 nM | 583 nM | – | –
CCOP(=O)(CCN1n2cc(C(=O)NCc3ccc(F)cc3F)c(=O)c(O)c2C(=O)N(CC)C12CCCC2)OCC [Compound 33] | – | 4.4 nM | 163 nM | – | –
CC(C)OC(=O)OCOP(=O)(OCOC(=O)OC(C)C)[C@@H]1CCC2(C1)N(C)C(=O)c1c(O)c(=O)c(C(=O)NCc3ccc(F)cc3F)cn1N2C (single isomer, unassigned) [Compound 29] | – | – | 4.8 nM | 0.2 nM | –
CN1C(=O)c2c(O)c(=O)c(C(=O)NCc3ccc(F)cc3F)cn2N(C)C12CC[C@H](P(=O)(O)O)C2 (single isomer, unassigned) [Compound 22] | – | – | – | 120 nM | 340 nM
CCOP(=O)(OCC)[C@H]1CCC2(C1)N(C)C(=O)c1c(O)c(=O)c(C(=O)NCc3ccc(F)cc3F)cn1N2C (stereo partly shown) [Compound 21] | – | 5.3 nM | 32.7 nM | – | –
CC(C)OC(=O)OCOP(=O)(O)CCN1n2cc(C(=O)NCc3ccc(F)cc3F)c(=O)c(O)c2C(=O)N(C)C12CCCC2 [Compound 8] | – | 2.3 nM | 660 nM | – | –
CN1C(=O)c2c(O)c(=O)c(C(=O)NCc3ccc(F)cc3F)cn2N(CCP(=O)(O)O)C12CCCC2 [Compound 4] | – | 32.2 nM | 2750 nM | – | –
CN1C(=O)c2c(O)c(=O)c(C(=O)NCc3ccc(F)cc3F)cn2N(C)C12CC[C@@H](P(=O)(O)O)C2 (single isomer, unassigned) [Compound 28] | – | 221 nM | – | – | 420 nM
CCOP(=O)(OCC)[C@@H]1CCC2(C1)N(C)C(=O)c1c(O)c(=O)c(C(=O)NCc3ccc(F)cc3F)cn1N2C (single isomer, unassigned) [Compound 30] | – | – | – | 13.7 nM | 1050 nM
CCOP(=O)(CCN1n2cc(C(=O)NCc3ccc(F)cc3F)c(=O)c(O)c2C(=O)N(C)C12CCCC2)OCC [Compound 2] | – | 2.8 nM | 81.1 nM | – | –
CCOP(=O)(OCC)[C@H]1CCC2(C1)N(C)C(=O)c1c(O)c(=O)c(C(=O)NCc3ccc(F)cc3F)cn1N2C (single isomer, unassigned) [Compound 24] | – | 9.1 nM | 4120 nM | – | –
CCOP(=O)(OCC)[C@@H]1CCC2(C1)N(C)C(=O)c1c(O)c(=O)c(C(=O)NCc3ccc(F)cc3F)cn1N2C (single isomer, unassigned) [Compound 27] | – | – | – | 5.6 nM | 78.2 nM
CN1C(=O)c2c(O)c(=O)c(C(=O)NCc3ccc(F)cc3F)cn2N(C)C12CC[C@H](P(=O)(O)O)C2 (single isomer, unassigned) [Compound 25] | – | 190 nM | – | – | 1070 nM
CCN1C(=O)c2c(O)c(=O)c(C(=O)NCc3ccc(F)cc3F)cn2N(C)C12CCC(P(=O)(OCOC(=O)OC(C)C)OCOC(=O)OC(C)C)C2 (stereo not shown) [Compound 37] | – | 0.2 nM | 2.8 nM | – | –
CC(C)OC(=O)OCOP(=O)(OCOC(=O)OC(C)C)[C@@H]1CCC2(C1)N(C)C(=O)c1c(O)c(=O)c(C(=O)NCc3ccc(F)cc3F)cn1N2C (single isomer, unassigned) [Compound 32] | – | – | – | 0.9 nM | 7 nM
CN1C(=O)c2c(O)c(=O)c(C(=O)NCc3ccc(F)cc3F)cn2N(C)C12CC[C@@H](P(=O)(O)O)C2 (single isomer, unassigned) [Compound 31] | – | – | – | 206 nM | 1070 nM
CC(C)OC(=O)OCOP(=O)(OCOC(=O)OC(C)C)[C@H]1CCC2(C1)N(C)C(=O)c1c(O)c(=O)c(C(=O)NCc3ccc(F)cc3F)cn1N2C (single isomer, unassigned) [Compound 26] | – | – | – | 1 nM | 35.9 nM
CCN1C(=O)c2c(O)c(=O)c(C(=O)NCc3ccc(F)cc3F)cn2N(CCP(=O)(O)O)C12CCCC2 [Compound 34] | – | 15.4 nM | 2490 nM | – | –
